# Assay results reported in patent US6087119A, “Method for determining the catalytic activity of factor IXa” (Roche Diagnostics GmbH, priority 1996, dated 2000).
# Read-outs that look alike come from different tables or passages of the source.
# How the values were obtained:
# native FIXa (human) = native FIXa (human) (Homo sapiens, UniProt P00740); details: MeSO2-D-HHT-Gly-Arg-pNA
# Source text: Influence of the pH on the Activity of rFIXa and Native FIXa in the Presence of Ethylene Glycol
# 1.02 mmol/l MeSO2 -D-HHT-Gly-Arg-pNA, MOC-D-Nle-Gly-Arg-pNA or MeSO2 -D-CHG-Gly-Arg-pNA
# 0.14 μmol/l native FIXa (human)
# rFIXa (human) = rFIXa (human) (Homo sapiens, UniProt P00740); test: Influence of the pH on the activity of rFIXa in the presence of ethylene glycol; format: biochemical; set-up: coding for the FIX protease domain from amino acid position 181 to 415; Met (ATG start codon) (N); made in house; details: 25% ethylene glycol; for increase of cleavage rates: pH 7.0-10.0; for cleavage rate mA/min: rFIXa (human)
# Sequence of rFIXa (human) (P00740 227-461): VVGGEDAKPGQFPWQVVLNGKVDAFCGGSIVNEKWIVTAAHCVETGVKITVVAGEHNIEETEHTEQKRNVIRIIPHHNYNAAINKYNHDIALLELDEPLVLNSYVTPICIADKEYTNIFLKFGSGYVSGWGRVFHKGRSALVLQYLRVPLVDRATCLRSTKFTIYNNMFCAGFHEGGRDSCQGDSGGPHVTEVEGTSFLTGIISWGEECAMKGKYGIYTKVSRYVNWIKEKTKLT
# Sequence of rFIXa (human) (P00740 131-226): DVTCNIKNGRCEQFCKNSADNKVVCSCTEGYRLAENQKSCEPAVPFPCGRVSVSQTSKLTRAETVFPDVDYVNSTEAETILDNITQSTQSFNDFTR
# Source text: 0.28 μmol/l rFIXa (human)
# Sequence of native FIXa (human) (P00740 227-461 limits assumed): as the sequence (P00740 227-461) above
# Sequence of native FIXa (human) (P00740 47-191 partner limits assumed): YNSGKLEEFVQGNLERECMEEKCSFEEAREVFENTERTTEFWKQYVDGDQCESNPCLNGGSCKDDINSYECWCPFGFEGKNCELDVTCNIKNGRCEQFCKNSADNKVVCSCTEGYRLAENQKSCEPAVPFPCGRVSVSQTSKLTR
compound,measurement,setting,value
OCCO [Ethylene glycol],cleavage rate mA/min,"native FIXa (human); pH 7.0, 25% ethylene glycol",23.7 mA/min
same,cleavage rate mA/min,"native FIXa (human); pH 7.5, 25% ethylene glycol",63.0 mA/min
same,cleavage rate mA/min,"native FIXa (human); pH 8.0, 25% ethylene glycol",101.0 mA/min
same,cleavage rate mA/min,"native FIXa (human); pH 8.25, 25% ethylene glycol",106.7 mA/min
same,cleavage rate mA/min,"native FIXa (human); pH 8.5, 25% ethylene glycol",115.4 mA/min
same,cleavage rate mA/min,"native FIXa (human); pH 8.75, 25% ethylene glycol",110.9 mA/min
same,cleavage rate mA/min,"native FIXa (human); pH 9.0, 25% ethylene glycol",105.6 mA/min
same,cleavage rate mA/min,"native FIXa (human); pH 9.5, 25% ethylene glycol",100.6 mA/min
same,cleavage rate mA/min,"native FIXa (human); pH 10.0, 25% ethylene glycol",77.2 mA/min
same,increase of cleavage rates,rFIXa (human); substrate MOC-D-Nle-Gly-Arg-pNA,14 fold
same,increase of cleavage rates,rFIXa (human); substrate MeSO2-D-CHG-Gly-Arg-pNA,20 fold
same,increase of cleavage rates,rFIXa (human); substrate MeSO2-D-HHT-Gly-Arg-pNA,10 fold
same,cleavage rate mA/min,"rFIXa (human); pH 7.0, MOC-D-Nle-Gly-Arg-pNA",31.5 mA/min
same,cleavage rate mA/min,"rFIXa (human); pH 7.0, MeSO2-D-CHG-Gly-Arg-pNA",154.7 mA/min
same,cleavage rate mA/min,"rFIXa (human); pH 7.0, MeSO2-D-HHT-Gly-Arg-pNA",56.5 mA/min
same,cleavage rate mA/min,"rFIXa (human); pH 7.5, MOC-D-Nle-Gly-Arg-pNA",70.1 mA/min
same,cleavage rate mA/min,"rFIXa (human); pH 7.5, MeSO2-D-CHG-Gly-Arg-pNA",289.8 mA/min
same,cleavage rate mA/min,"rFIXa (human); pH 7.5, MeSO2-D-HHT-Gly-Arg-pNA",124.5 mA/min
same,cleavage rate mA/min,"rFIXa (human); pH 8.0, MOC-D-Nle-Gly-Arg-pNA",99.7 mA/min
same,cleavage rate mA/min,"rFIXa (human); pH 8.0, MeSO2-D-CHG-Gly-Arg-pNA",372.4 mA/min
same,cleavage rate mA/min,"rFIXa (human); pH 8.0, MeSO2-D-HHT-Gly-Arg-pNA",173.6 mA/min
same,cleavage rate mA/min,"rFIXa (human); pH 8.25, MOC-D-Nle-Gly-Arg-pNA",102.7 mA/min
same,cleavage rate mA/min,"rFIXa (human); pH 8.25, MeSO2-D-CHG-Gly-Arg-pNA",382.2 mA/min
same,cleavage rate mA/min,"rFIXa (human); pH 8.25, MeSO2-D-HHT-Gly-Arg-pNA",176.0 mA/min
same,cleavage rate mA/min,"rFIXa (human); pH 8.5, MOC-D-Nle-Gly-Arg-pNA",104.3 mA/min
same,cleavage rate mA/min,"rFIXa (human); pH 8.5, MeSO2-D-CHG-Gly-Arg-pNA",389.8 mA/min
same,cleavage rate mA/min,"rFIXa (human); pH 8.5, MeSO2-D-HHT-Gly-Arg-pNA",182.1 mA/min
same,cleavage rate mA/min,"rFIXa (human); pH 8.75, MOC-D-Nle-Gly-Arg-pNA",101.6 mA/min
same,cleavage rate mA/min,"rFIXa (human); pH 8.75, MeSO2-D-CHG-Gly-Arg-pNA",395.6 mA/min
same,cleavage rate mA/min,"rFIXa (human); pH 8.75, MeSO2-D-HHT-Gly-Arg-pNA",170.7 mA/min
same,cleavage rate mA/min,"rFIXa (human); pH 9.0, MOC-D-Nle-Gly-Arg-pNA",97.3 mA/min
same,cleavage rate mA/min,"rFIXa (human); pH 9.0, MeSO2-D-CHG-Gly-Arg-pNA",373.3 mA/min
same,cleavage rate mA/min,"rFIXa (human); pH 9.0, MeSO2-D-HHT-Gly-Arg-pNA",164.1 mA/min
same,cleavage rate mA/min,"rFIXa (human); pH 9.5, MOC-D-Nle-Gly-Arg-pNA",70.7 mA/min
same,cleavage rate mA/min,"rFIXa (human); pH 9.5, MeSO2-D-CHG-Gly-Arg-pNA",255.6 mA/min
same,cleavage rate mA/min,"rFIXa (human); pH 9.5, MeSO2-D-HHT-Gly-Arg-pNA",112.0 mA/min
same,cleavage rate mA/min,"rFIXa (human); pH 10.0, MOC-D-Nle-Gly-Arg-pNA",68.3 mA/min
same,cleavage rate mA/min,"rFIXa (human); pH 10.0, MeSO2-D-CHG-Gly-Arg-pNA",244.5 mA/min
same,cleavage rate mA/min,"rFIXa (human); pH 10.0, MeSO2-D-HHT-Gly-Arg-pNA",110.1 mA/min
